Results: ChEMBL document CHEMBL5674860, “Optimized Dual-Glo Assay to identify co-culture-induced drug vulnerabilities in 3D CRC models” (2024)

Assays:
Type in all cases: functional, Homo sapiens
Parameters in all cases: dose or concentration left out as unconfirmed
Colon cancer organoid [1] = assay: Optimized Dual-Glo assay to identify co-culture induced drug vulnerabilities using donated chemical probes and chemogenomics kinase set in O20 CRC organoid and F20 CAF mono and co-culture. […] Cell viability is reported both mono and co-culture models.
Colon cancer organoid [2] = assay: Optimized Dual-Glo assay to identify co-culture induced drug vulnerabilities using donated chemical probes and chemogenomics kinase set in O06 CRC organoid and F06 CAF mono and co-culture. […] Cell viability is reported both mono and co-culture models.
Colon cancer organoid [3] = assay: Optimized Dual-Glo assay to identify co-culture induced drug vulnerabilities using donated chemical probes and chemogenomics kinase set in O14 CRC organoid and F14 CAF mono and co-culture. […] Cell viability is reported both mono and co-culture models.
[4] = Culture type Co-Culture, Transduced with Lucferase2-P2A-EGFP lentivirus
[5] = Culture type Co-Culture, Transduced with Renilla-dsRed lentivirus
[6] = Culture type Mono-Culture, Transduced with Lucferase2-P2A-EGFP lentivirus
[7] = Culture type Mono-Culture, Transduced with Renilla-dsRed lentivirus

## COc1ccc2c(c1)O[C@@H](c1ccc(OC)c(OC)c1)C[C@H]2NC(=O)C1(c2ccc3c(c2)OC(F)(F)O3)CC1 [A-1596586]
Colon cancer organoid [1]; [4]
  Cell Viability: 84.3805%
Colon cancer organoid [1]; [5]
  Cell Viability: 101.93%
Colon cancer organoid [1]; [6]
  Cell Viability: 87.5429%
Colon cancer organoid [1]; [7]
  Cell Viability: 80.1817%
Colon cancer organoid [2]; [4]
  Cell Viability: 95.9961%
Colon cancer organoid [2]; [5]
  Cell Viability: 117.187%
Colon cancer organoid [2]; [6]
  Cell Viability: 95.5945%
Colon cancer organoid [2]; [7]
  Cell Viability: 101.185%
Colon cancer organoid [3]; [4]
  Cell Viability: 96.097%
Colon cancer organoid [3]; [5]
  Cell Viability: 118.297%
Colon cancer organoid [3]; [6]
  Cell Viability: 94.5524%
Colon cancer organoid [3]; [7]
  Cell Viability: 101.637%

## Clc1cccc(-c2nnnn2Cc2cccnc2)c1Cl
Colon cancer organoid [1]; [4]
  Cell Viability: 106.259%
Colon cancer organoid [1]; [5]
  Cell Viability: 101.74%
Colon cancer organoid [1]; [6]
  Cell Viability: 98.4532%
Colon cancer organoid [1]; [7]
  Cell Viability: 98.284%
Colon cancer organoid [2]; [4]
  Cell Viability: 143.79%
Colon cancer organoid [2]; [5]
  Cell Viability: 176.132%
Colon cancer organoid [2]; [6]
  Cell Viability: 116.081%
Colon cancer organoid [2]; [7]
  Cell Viability: 109.73%
Colon cancer organoid [3]; [4]
  Cell Viability: 106.43%
Colon cancer organoid [3]; [5]
  Cell Viability: 104.512%
Colon cancer organoid [3]; [6]
  Cell Viability: 115.794%
Colon cancer organoid [3]; [7]
  Cell Viability: 81.6635%

## CCCCNNC(=O)c1ccc(Br)cc1
Colon cancer organoid [1]; [4]
  Cell Viability: 131.228%
Colon cancer organoid [1]; [5]
  Cell Viability: 114.511%
Colon cancer organoid [1]; [6]
  Cell Viability: 127.902%
Colon cancer organoid [1]; [7]
  Cell Viability: 88.6471%
Colon cancer organoid [2]; [4]
  Cell Viability: 113.204%
Colon cancer organoid [2]; [5]
  Cell Viability: 110.004%
Colon cancer organoid [2]; [6]
  Cell Viability: 101.234%
Colon cancer organoid [2]; [7]
  Cell Viability: 117.719%
Colon cancer organoid [3]; [4]
  Cell Viability: 82.2147%
Colon cancer organoid [3]; [5]
  Cell Viability: 109.67%
Colon cancer organoid [3]; [6]
  Cell Viability: 123.977%
Colon cancer organoid [3]; [7]
  Cell Viability: 94.4376%

## CNCCN1CCC(OCc2ccccc2)CC1
Colon cancer organoid [1]; [4]
  Cell Viability: 15.2188%
Colon cancer organoid [1]; [5]
  Cell Viability: 211.667%
Colon cancer organoid [1]; [6]
  Cell Viability: 16.3767%
Colon cancer organoid [1]; [7]
  Cell Viability: 101.684%
Colon cancer organoid [2]; [4]
  Cell Viability: 118.085%
Colon cancer organoid [2]; [5]
  Cell Viability: 144.179%
Colon cancer organoid [2]; [6]
  Cell Viability: 105.555%
Colon cancer organoid [2]; [7]
  Cell Viability: 98.6528%
Colon cancer organoid [3]; [4]
  Cell Viability: 36.6993%
Colon cancer organoid [3]; [5]
  Cell Viability: 161.59%
Colon cancer organoid [3]; [6]
  Cell Viability: 58.8026%
Colon cancer organoid [3]; [7]
  Cell Viability: 109.763%

## Clc1cc2c(NC3CCCC3)nnc(-c3ccncc3)c2cc1Cl
Colon cancer organoid [1]; [4]
  Cell Viability: 149.301%
Colon cancer organoid [1]; [5]
  Cell Viability: 128.6%
Colon cancer organoid [1]; [6]
  Cell Viability: 80.485%
Colon cancer organoid [1]; [7]
  Cell Viability: 77.3951%
Colon cancer organoid [2]; [4]
  Cell Viability: 131.765%
Colon cancer organoid [2]; [5]
  Cell Viability: 133.642%
Colon cancer organoid [2]; [6]
  Cell Viability: 39.455%
Colon cancer organoid [2]; [7]
  Cell Viability: 87.2375%
Colon cancer organoid [3]; [4]
  Cell Viability: 74.2058%
Colon cancer organoid [3]; [5]
  Cell Viability: 99.3707%
Colon cancer organoid [3]; [6]
  Cell Viability: 72.2513%
Colon cancer organoid [3]; [7]
  Cell Viability: 106.405%

## COc1cc(N2CCC(O)CC2)ccc1Nc1cc(Nc2ccccc2S(=O)(=O)C(C)C)c2cc[nH]c2n1
Colon cancer organoid [1]; [4]
  Cell Viability: 108.471%
Colon cancer organoid [1]; [5]
  Cell Viability: 84.332%
Colon cancer organoid [1]; [6]
  Cell Viability: 70.9146%
Colon cancer organoid [1]; [7]
  Cell Viability: 86.2422%
Colon cancer organoid [2]; [4]
  Cell Viability: 85.241%
Colon cancer organoid [2]; [5]
  Cell Viability: 81.2438%
Colon cancer organoid [2]; [6]
  Cell Viability: 122.712%
Colon cancer organoid [2]; [7]
  Cell Viability: 109.159%
Colon cancer organoid [3]; [4]
  Cell Viability: 73.6565%
Colon cancer organoid [3]; [5]
  Cell Viability: 103.778%
Colon cancer organoid [3]; [6]
  Cell Viability: 68.2856%
Colon cancer organoid [3]; [7]
  Cell Viability: 78.3072%

## O=C(NOCC1CC1)c1ccc(F)c(F)c1Nc1ccc(I)cc1Cl [CI-1040]
Colon cancer organoid [1]; [4]
  Cell Viability: 43.8229%
Colon cancer organoid [1]; [5]
  Cell Viability: 195.336%
Colon cancer organoid [1]; [6]
  Cell Viability: 27.7103%
Colon cancer organoid [1]; [7]
  Cell Viability: 59.0843%
Colon cancer organoid [2]; [4]
  Cell Viability: 38.2974%
Colon cancer organoid [2]; [5]
  Cell Viability: 73.8424%
Colon cancer organoid [2]; [6]
  Cell Viability: 7.023%
Colon cancer organoid [2]; [7]
  Cell Viability: 67.7326%
Colon cancer organoid [3]; [4]
  Cell Viability: 16.7737%
Colon cancer organoid [3]; [5]
  Cell Viability: 86.2158%
Colon cancer organoid [3]; [6]
  Cell Viability: 10.461%
Colon cancer organoid [3]; [7]
  Cell Viability: 42.9063%

## COc1c(C)cc(NC(=O)c2nn(Cc3ccc(F)cc3)c3c2CN(C(=O)c2ccc[nH]2)C[C@]3(C)C(N)=O)cc1C
Colon cancer organoid [1]; [4]
  Cell Viability: 106.451%
Colon cancer organoid [1]; [5]
  Cell Viability: 95.1299%
Colon cancer organoid [1]; [6]
  Cell Viability: 138.387%
Colon cancer organoid [1]; [7]
  Cell Viability: 102.921%
Colon cancer organoid [2]; [4]
  Cell Viability: 66.5012%
Colon cancer organoid [2]; [5]
  Cell Viability: 112.674%
Colon cancer organoid [2]; [6]
  Cell Viability: 87.4341%
Colon cancer organoid [2]; [7]
  Cell Viability: 110.624%
Colon cancer organoid [3]; [4]
  Cell Viability: 89.068%
Colon cancer organoid [3]; [5]
  Cell Viability: 129.679%
Colon cancer organoid [3]; [6]
  Cell Viability: 87.8638%
Colon cancer organoid [3]; [7]
  Cell Viability: 102.007%

## CN(C)c1ncnc(-c2ccc3nc(Nc4cc(CN5CCN(C(=O)CC(F)(F)F)CC5)ccn4)[nH]c3c2)c1Cl [BAY-440]
Colon cancer organoid [1]; [4]
  Cell Viability: 123.006%
Colon cancer organoid [1]; [5]
  Cell Viability: 109.622%
Colon cancer organoid [1]; [6]
  Cell Viability: 117.784%
Colon cancer organoid [1]; [7]
  Cell Viability: 126.413%
Colon cancer organoid [2]; [4]
  Cell Viability: 92.9994%
Colon cancer organoid [2]; [5]
  Cell Viability: 174.385%
Colon cancer organoid [2]; [6]
  Cell Viability: 85.2405%
Colon cancer organoid [2]; [7]
  Cell Viability: 88.7418%
Colon cancer organoid [3]; [4]
  Cell Viability: 103.771%
Colon cancer organoid [3]; [5]
  Cell Viability: 112.238%
Colon cancer organoid [3]; [6]
  Cell Viability: 114.79%
Colon cancer organoid [3]; [7]
  Cell Viability: 113.849%

## Cn1cc(CNCC2CCN(c3ncc(C(=O)NO)cn3)CC2)c2ccccc21 [QUISINOSTAT]
Colon cancer organoid [1]; [4]
  Cell Viability: 1.342%
Colon cancer organoid [1]; [5]
  Cell Viability: 37.1921%
Colon cancer organoid [1]; [6]
  Cell Viability: 2.078%
Colon cancer organoid [1]; [7]
  Cell Viability: 3.907%
Colon cancer organoid [2]; [4]
  Cell Viability: 1.095%
Colon cancer organoid [2]; [5]
  Cell Viability: 190.694%
Colon cancer organoid [2]; [6]
  Cell Viability: 6.147%
Colon cancer organoid [2]; [7]
  Cell Viability: 20.2291%
Colon cancer organoid [3]; [4]
  Cell Viability: 0.9193%
Colon cancer organoid [3]; [5]
  Cell Viability: 88.4975%
Colon cancer organoid [3]; [6]
  Cell Viability: 0.7655%
Colon cancer organoid [3]; [7]
  Cell Viability: 72.0368%

## c1ccc2oc(-c3csc(C4CCN(Cc5nc6ncccc6[nH]5)CC4)n3)cc2c1
Colon cancer organoid [1]; [4]
  Cell Viability: 55.8408%
Colon cancer organoid [1]; [5]
  Cell Viability: 105.216%
Colon cancer organoid [1]; [6]
  Cell Viability: 98.8646%
Colon cancer organoid [1]; [7]
  Cell Viability: 99.5308%
Colon cancer organoid [2]; [4]
  Cell Viability: 118.221%
Colon cancer organoid [2]; [5]
  Cell Viability: 124.83%
Colon cancer organoid [2]; [6]
  Cell Viability: 91.0093%
Colon cancer organoid [2]; [7]
  Cell Viability: 102.554%
Colon cancer organoid [3]; [4]
  Cell Viability: 119.834%
Colon cancer organoid [3]; [5]
  Cell Viability: 111.13%
Colon cancer organoid [3]; [6]
  Cell Viability: 91.6979%
Colon cancer organoid [3]; [7]
  Cell Viability: 94.4275%

## Cl.O=C(O)c1cc(-c2ccc(C3CCNCC3)cc2)c2ccc(-c3ccc(C(F)(F)F)cc3)cc2c1
Colon cancer organoid [1]; [4]
  Cell Viability: 105.826%
Colon cancer organoid [1]; [5]
  Cell Viability: 101.384%
Colon cancer organoid [1]; [6]
  Cell Viability: 71.4178%
Colon cancer organoid [1]; [7]
  Cell Viability: 87.2658%
Colon cancer organoid [2]; [4]
  Cell Viability: 107.895%
Colon cancer organoid [2]; [5]
  Cell Viability: 117.47%
Colon cancer organoid [2]; [6]
  Cell Viability: 95.8495%
Colon cancer organoid [2]; [7]
  Cell Viability: 93.2112%
Colon cancer organoid [3]; [4]
  Cell Viability: 74.9682%
Colon cancer organoid [3]; [5]
  Cell Viability: 122.124%
Colon cancer organoid [3]; [6]
  Cell Viability: 85.098%
Colon cancer organoid [3]; [7]
  Cell Viability: 99.5367%

## Cl.Cl.Cl.c1ccc(N2CCN(Cc3nc4ccccc4[nH]3)CC2)nc1
Colon cancer organoid [1]; [4]
  Cell Viability: 41.4322%
Colon cancer organoid [1]; [5]
  Cell Viability: 124.541%
Colon cancer organoid [1]; [6]
  Cell Viability: 78.9868%
Colon cancer organoid [1]; [7]
  Cell Viability: 88.4978%
Colon cancer organoid [2]; [4]
  Cell Viability: 145.739%
Colon cancer organoid [2]; [5]
  Cell Viability: 162.508%
Colon cancer organoid [2]; [6]
  Cell Viability: 117.947%
Colon cancer organoid [2]; [7]
  Cell Viability: 106.828%
Colon cancer organoid [3]; [4]
  Cell Viability: 78.8417%
Colon cancer organoid [3]; [5]
  Cell Viability: 120.535%
Colon cancer organoid [3]; [6]
  Cell Viability: 87.6489%
Colon cancer organoid [3]; [7]
  Cell Viability: 99.3304%

## C=CC(=O)Nc1cccc(C(=O)Nc2ccc(Nc3cc(-c4[nH]c(SC)nc4C)ccn3)cc2)c1
Colon cancer organoid [1]; [4]
  Cell Viability: 175.75%
Colon cancer organoid [1]; [5]
  Cell Viability: 71.728%
Colon cancer organoid [1]; [6]
  Cell Viability: 133.783%
Colon cancer organoid [1]; [7]
  Cell Viability: 92.5554%
Colon cancer organoid [2]; [4]
  Cell Viability: 87.3077%
Colon cancer organoid [2]; [5]
  Cell Viability: 89.5907%
Colon cancer organoid [2]; [6]
  Cell Viability: 92.9694%
Colon cancer organoid [2]; [7]
  Cell Viability: 99.3546%
Colon cancer organoid [3]; [4]
  Cell Viability: 92.8618%
Colon cancer organoid [3]; [5]
  Cell Viability: 104.149%
Colon cancer organoid [3]; [6]
  Cell Viability: 127.049%
Colon cancer organoid [3]; [7]
  Cell Viability: 88.1867%
